Read-outs that look alike come from different tables or passages of the source. Where a SMILES comes first, the peptide text is derived from it. Bridges are numbered along the chain shown (N, C = ends). [ ]: non-standard residue; d: D form. The star is where a group is joined. Ileψ(thiazoline)Cys = CC[C@H](C)[C@H](N)C1=N[C@H](C(=O)*)CS1; dOrn = NCCC[C@@H](N)C(=O)O
Tests used:
TK-1 cells = TK-1 cells in PM1 and PM2 plates, with or without 0.5 mM sodium pyruvate; type: cell-based, mouse
Procedure: In this Example, methods for testing a murine T lymphoma cells (Butcher et al., Eur. J. Immunol., 10:556-561 [1980]), for their ability to use multiple carbon sources are described. The methods used to culture the TK-1 lymphoma cell line were similar to those used to culture HL-60 cells, as described in Example 27.
TK-1 cells were grown in Falcon tissue culture flasks with vented tops. Culture medium was RPMI 1640 medium (Invitrogen 11875) with 4.5 g/L glucose, 2 mM L-glutamine, 1 mM sodium pyruvate, 0.1 mM nonessential amino acids (NEAA), 0.05 mM 2-mercaptoethanol (2ME), 2 g/L sodium bicarbonate, 5 mg/L phenol red, 50 U/mL penicillin, 50 μg/mL streptomycin, and 10% (v/v) heat inactivated fetal bovine serum (HI FBS, Invitrogen 16140). The cells were seeded at 3×10^5/mL, subcultured at 3 days after initiation of culture to 10^6 cells/mL and used 24 hours later. During all incubations, the cells were kept in an atmosphere of 5% CO2, 90-100% humidity, and 37° C.
A viable cell count was obtained by trypan blue exclusion and an appropriate volume of the cell suspension was placed in a polypropylene centrifuge tube. The cells were washed in DPBS and then resuspended to two-thirds the final volume needed in Dulbecco ? s Modified Eagle ? s Medium (DME, Sigma D5030) with the supplements listed in Table 17, as well as 2-ME, sodium pyruvate and NEAA, and including 10% HI FBS, but without glucose, L-glutamine, sodium pyruvate, and phenol red. This medium is termed DME-RTK. An aliquot was counted by trypan blue exclusion and the cell density was adjusted to 1×10^6/mL. Fifty μL of DME-RTK were added to each well of the appropriate number of half area, 96-well plates (PM1 and PM2 MICROPLATE testing plates). The cells were divided into two lots and one lot received a 1/100 dilution of 100 mM sodium pyruvate (final concentration, 0.5 mM). Cells from both lots were plated at a final cell density of 5×10^4/well (50 μL/well). For each plate containing chemicals and cells, a second, control plate containing only chemicals was prepared. Plates were incubated at 5% CO2, 90-100% humidity, and 37° C. for 1 hour prior to addition of the MTS/MPMS colorimetric reagent (5 μL/well). The color formed in each well 24 hours after addition of the colorimetric reagent, was measured with a plate reader at 490 nm with a reference wavelength of 650 nm. OD values from the control plate were subtracted from the OD values obtained with cells prior to normalizing the data to % negative control.

E. coli MG1655 [1] = type: cell-based, Escherichia coli
E. coli MG1655 [2] = type: cell-based, Escherichia coli; remark: listed apart in the source
[3] = system: Salmonella typhimurium auxotrophs hisF645 and pyrCΔ73; type: cell-based
E. coli (MG1655) = assay: Sensitivity in ES1, ES2, ES3 MICROPLATE panels in the presence of vancomycin or sulfamethoxazole (synergy/antagonism); type: cell-based, Escherichia coli
E. coli MG1655 [4] = assay: PM kinetic profiles of antimicrobials, S-O-R scoring and dendrogram; type: cell-based, Escherichia coli
[5] = in the presence of 0.5 mM sodium pyruvate
[6] = 1× level of each antimicrobial, 7 PMs, 48 hours
[7] = in the presence of 235 μg/ml sulfamethoxazole
[8] = in the presence of 10 μg/ml vancomycin

## O=C(O)c1ccc(O)cc1 [4-hydroxy-benzoic acid]
TK-1 cells; [5]
  response of TK-1 cells: gained responses

## N[C@@H](CCO)C(=O)O [L-homoserine]
E. coli MG1655 [1]
  suitability as nitrogen source (growth, purple color): not suitable
TK-1 cells; [5]
  response of TK-1 cells: lost responses

## NCCC[C@H](N)C(=O)O [L-ornithine]
E. coli MG1655 [1]
  suitability as nitrogen source (growth, purple color): not suitable
TK-1 cells; [5]
  response of TK-1 cells: lost responses

## N[C@@H](Cc1ccccc1)C(=O)O [L-phenylalanine]
E. coli MG1655 [1]
  suitability as nitrogen source (growth, purple color): not suitable
TK-1 cells; [5]
  response of TK-1 cells: gained responses

## Nc1ncnc2c1ncn2[C@@H]1O[C@H](COP(=O)(O)O)[C@@H](O)[C@H]1O [adenosine 5′-monophosphate]
E. coli MG1655 [2]
  suitability as phosphorus source (growth, purple color): not suitable
[3]
  growth stimulation (well color): turned weakly purple

## Nc1ncnc2c1ncn2[C@@H]1O[C@H](CO)[C@@H](O)[C@H]1OP(=O)(O)O [adenosine-2′-monophosphate]
E. coli MG1655 [2]
  suitability as phosphorus source (growth, purple color): positive
[3]
  growth stimulation (well color): turned weakly purple

## OC[C@H]1O[C@@H](Oc2ccc(O)cc2)[C@H](O)[C@@H](O)[C@@H]1O [arbutin]
TK-1 cells; [5]
  response of TK-1 cells: gained responses

## O=[N+]([O-])c1ncc[nH]1 [azomycin]
E. coli (MG1655)
  change of sensitivity to the panel compound: increased sensitivity

## CC[C@H](C)[C@H](N)C1=N[C@H](C(=O)N[C@@H](CC(C)C)C(=O)N[C@H](CCC(=O)O)C(=O)N[C@H](C(=O)N[C@H]2CCCCNC(=O)[C@H](CC(N)=O)NC(=O)[C@@H](CC(=O)O)NC(=O)[C@H](Cc3cnc[nH]3)NC(=O)[C@@H](Cc3ccccc3)NC(=O)[C@H]([C@@H](C)CC)NC(=O)[C@@H](CCCN)NC2=O)[C@@H](C)CC)CS1 [bacitracin] ({Ileψ(thiazoline)Cys}-L[dE]IK[dOrn]I[dF]H[dD]N; lactam 4-C)
E. coli MG1655 [4]; [6]
  position in dendrogram of PM response profiles (FIG. 9): cluster

## N[C@@H](C(=O)N[C@@H]1C(=O)N2C(C(=O)O)=C(Cl)CS[C@H]12)c1ccccc1 [cefaclor]
E. coli (MG1655); [7]
  change of sensitivity to the panel compound: increased sensitivity

## Cc1nnc(SCC2=C(C(=O)O)N3C(=O)[C@@H](NC(=O)Cn4cnnn4)[C@H]3SC2)s1 [cefazolin]
E. coli (MG1655); [8]
  change of sensitivity to the panel compound: increased sensitivity
E. coli (MG1655); [7]
  change of sensitivity to the panel compound: increased sensitivity

## CO[C@@]1(NC(=O)Cc2cccs2)C(=O)N2C(C(=O)O)=C(COC(N)=O)CS[C@@H]21 [cefoxitin]
E. coli (MG1655); [8]
  change of sensitivity to the panel compound: increased sensitivity

## NC(=O)c1cc[n+](CC2=C(C(=O)O)N3C(=O)[C@@H](NC(=O)[C@@H](c4ccccc4)S(=O)(=O)[O-])[C@H]3SC2)cc1 [cefsulodin]
E. coli (MG1655); [7]
  change of sensitivity to the panel compound: increased sensitivity

## O=C(Cc1cccs1)N[C@@H]1C(=O)N2C(C(=O)[O-])=C(C[n+]3ccccc3)CS[C@H]12 [cephaloridine]
E. coli (MG1655); [7]
  change of sensitivity to the panel compound: increased sensitivity

## CC(=O)OCC1=C(C(=O)O)N2C(=O)[C@@H](NC(=O)Cc3cccs3)[C@H]2SC1 [cephalothin]
E. coli (MG1655); [8]
  change of sensitivity to the panel compound: increased sensitivity
E. coli (MG1655); [7]
  change of sensitivity to the panel compound: increased sensitivity
E. coli MG1655 [4]; [6]
  position in dendrogram of PM response profiles (FIG. 9): cluster

## C/C=C/C/C=C/CCC(=O)[C@H]1O[C@H]1C(N)=O [cerulenin]
E. coli MG1655 [4]; [6]
  position in dendrogram of PM response profiles (FIG. 9): more closely resembled the multiple target antimicrobials

## [Cl][Cr]([Cl])[Cl] [chromium chloride]
E. coli (MG1655)
  change of sensitivity to the panel compound: increased sensitivity

## [Cl][Co][Cl] [cobalt chloride]
E. coli (MG1655)
  change of sensitivity to the panel compound: increased sensitivity

## Nc1ccn([C@@H]2O[C@H](CO)[C@@H](O)[C@H]2OP(=O)(O)O)c(=O)n1 [cytidine 2′-monophosphate]
E. coli MG1655 [2]
  suitability as phosphorus source (growth, purple color): not suitable
[3]
  growth stimulation (well color): turned purple

## Nc1ccn([C@@H]2O[C@H](CO)[C@@H](OP(=O)(O)O)[C@H]2O)c(=O)n1 [cytidine 3′-monophosphate]
E. coli MG1655 [2]
  suitability as phosphorus source (growth, purple color): positive
[3]
  growth stimulation (well color): turned purple

## Nc1ccn([C@@H]2O[C@H](COP(=O)(O)O)[C@@H](O)[C@H]2O)c(=O)n1 [cytidine 5′-monophosphate]
E. coli MG1655 [2]
  suitability as phosphorus source (growth, purple color): positive
[3]
  growth stimulation (well color): turned purple

## CC(=O)O[C@H]1C[C@@]2(C)[C@@H](C[C@@H](O)[C@H]3[C@@]4(C)CC[C@@H](O)[C@@H](C)[C@@H]4CC[C@@]32C)/C1=C(\CCC=C(C)C)C(=O)O [fusidic acid]
E. coli (MG1655); [8]
  change of sensitivity to the panel compound: increased sensitivity

## Nc1nc2c(ncn2[C@@H]2O[C@H](CO)[C@@H](O)[C@H]2OP(=O)(O)O)c(=O)[nH]1 [guanosine 2′-monophosphate]
E. coli MG1655 [2]
  suitability as phosphorus source (growth, purple color): positive
[3]
  growth stimulation (well color): turned weakly purple

## Nc1nc2c(ncn2[C@@H]2O[C@H](COP(=O)(O)O)[C@@H](O)[C@H]2O)c(=O)[nH]1 [guanosine 5′-monophosphate]
E. coli MG1655 [2]
  suitability as phosphorus source (growth, purple color): positive
[3]
  growth stimulation (well color): turned weakly purple

## CCn1cc(C(=O)O)c(=O)c2ccc(C)nc21 [nalidixic acid]
E. coli (MG1655)
  change of sensitivity to the panel compound: increased sensitivity
E. coli MG1655 [4]
  position in dendrogram of PM response profiles (FIG. 9): did not cluster with the other two DNA gyrase inhibiting chemicals

## [Cl][Ni][Cl] [nickel chloride]
E. coli (MG1655)
  change of sensitivity to the panel compound: increased sensitivity

## CO[C@@H]1[C@@H](OC(N)=O)[C@@H](O)[C@H](Oc2ccc3c(O)c(NC(=O)c4ccc(O)c(CC=C(C)C)c4)c(=O)oc3c2C)OC1(C)C [novobiocin]
E. coli (MG1655)
  change of sensitivity to the panel compound: increased resistance
E. coli (MG1655); [8]
  change of sensitivity to the panel compound: increased sensitivity

## CCn1cc(C(=O)O)c(=O)c2cc3c(cc21)OCO3 [oxolinic acid]
E. coli MG1655 [4]; [6]
  position in dendrogram of PM response profiles (FIG. 9): clustered

## C[C@@H]1O[C@@H]1P(=O)(O)O [phosphomycin]
E. coli MG1655 [4]; [6]
  position in dendrogram of PM response profiles (FIG. 9): cluster

## O=C(O)CCCCCCCCC(=O)O [sebacic acid]
TK-1 cells; [5]
  response of TK-1 cells: gained responses

## [H]/N=C(/N)N[C@H]1[C@H](O)[C@@H](O)[C@H](O[C@@H]2O[C@@H](C)[C@](O)(C=O)[C@H]2O[C@@H]2O[C@@H](CO)[C@H](O)[C@@H](O)[C@@H]2NC)[C@@H](N/C(N)=N\[H])[C@@H]1O [streptomycin]
E. coli MG1655 [4]; [6]
  position in dendrogram of PM response profiles (FIG. 9): cluster

## Nc1ccc(S(=O)(=O)Nc2nccs2)cc1 [sulfathiazole]
E. coli MG1655 [4]; [6]
  position in dendrogram of PM response profiles (FIG. 9): more closely resembled the multiple target antimicrobials

## COc1cc(Cc2cnc(N)nc2N)cc(OC)c1OC [trimethoprim]
E. coli (MG1655); [8]
  change of sensitivity to the panel compound: increased sensitivity
E. coli (MG1655); [7]
  change of sensitivity to the panel compound: increased sensitivity

## O=c1ccn([C@@H]2O[C@H](CO)[C@@H](OP(=O)(O)O)[C@H]2O)c(=O)[nH]1 [uridine 3′-monophosphate]
E. coli MG1655 [2]
  suitability as phosphorus source (growth, purple color): positive
[3]
  growth stimulation (well color): turned purple

## O=c1ccn([C@@H]2O[C@H](COP(=O)(O)O)[C@@H](O)[C@H]2O)c(=O)[nH]1 [uridine 5′-monophosphate]
E. coli MG1655 [2]
  suitability as phosphorus source (growth, purple color): positive
[3]
  growth stimulation (well color): turned purple

## CO[C@@H]1OC[C@@H](O)[C@H](O)[C@H]1O [β-methyl xyloside]
TK-1 cells; [5]
  response of TK-1 cells: gained responses

## O=C(O)CCCO [γ-hydroxybutyric acid]
TK-1 cells
  response of TK-1 cells: lost responses

## coumermycin
E. coli MG1655 [4]
  position in dendrogram of PM response profiles (FIG. 9): clustered

## pectin
TK-1 cells; [5]
  response of TK-1 cells: gained responses

## polymyxin B
E. coli MG1655 [4]
  position in dendrogram of PM response profiles (FIG. 9): more closely resembled the multiple target antimicrobials
